From PMC4370687, “Functional Characterization of the 1,5-Benzodiazepine Clobazam and Its Major Active Metabolite N-Desmethylclobazam at Human GABAA Receptors Expressed in Xenopus laevis Oocytes” (PLoS ONE, 2015)
Marks after values point to notes of the source that are not given here.

Columns and labels:
human α2β2γ2S GABAAR = molecular target: T1, human α2β2γ2S GABAAR (Homo sapiens, UniProt P18507+P47869+P47870); assay: Potentiation of GABA EC20-evoked currents, TEVC in Xenopus oocytes; format: cell-based
T1 construct: expressed in transfected cells; host or cells: Xenopus laevis oocytes (cRNA injection, α:β2:γ2S 1:1:1; 1:1:5 in the zolpidem comparison)
Procedure: (§1) The cDNAs encoding the human GABAAR subunits were linearized with DraIII (α1, α2, α3, α5 and α6), SmaI (β2 and γ2S) or StuI (δ) and used as templates for in vitro cRNA synthesis using the T7 mMESSAGE mMACHINE High Yield Capped RNA Transcription Kit (Life Technologies Corporation, Carlsbad, CA, USA). Except where otherwise indicated, Xenopus oocytes were injected with 36.8 nL cRNA solution encoding for α1β2γ2S, α2β2γ2S, α3β2γ2S and α5β2γ2S GABAARs in a 1:1:1 α:β2:γ2S ratio (2.7 ng/μL of each subunit), with 46 nL cRNA solution encoding for the α6β2δ GABAAR in a 10:1:10 α6:β2:δ ratio (1:0.1:1 μg/μL), with 18 nL cRNA solution encoding for the α1β2 GABAAR in a 1:1 α1:β2 ratio (0.6:0.6 μg/μL), or with 46 nL cRNA encoding for α6β2 (α6:β2 ratio: 1:0.1 μg/μL). Following injection, the oocytes were incubated at 18°C in modified Barth’s solution [88 mM NaCl, 1 mM KCl, 15 mM HEPES (pH 7.5), 2.4 mM NaHCO3, 0.41 mM CaCl2, 0.82 mM MgSO4, 0.3 mM Ca(NO3)2, 100 U/mL penicillin and 100 μg/mL streptomycin]. Electrophysiological recordings were performed 3 to 6 days after injection.
(§2) Electrophysiological recordings were performed using the TEVC technique on Xenopus oocytes expressing various GABAAR combinations using a protocol adapted from previous studies. […] Cells were impaled with agar-plugged 0.5–1 MΩ electrodes containing 3 M KCl and voltage clamped at −70 mV by a Gene Clamp 500B amplifier (Axon Instruments, Union City, CA, USA) and recorded with pClamp 10 (Windows version, Molecular Devices, LLC, Sunnyvale, CA, USA). The oocytes were continuously perfused with Ringer buffer, and the test compounds were applied in the perfusate. Experiments were performed at room temperature and each data point represents the mean ± S.E.M. value of recordings performed on at least two oocytes from at least two different batches of oocytes. The recorded baseline-to-peak current amplitudes were analyzed using Clampfit 10.1 (Axon Instruments, Union City, CA, USA). […] The presence of δ in cell surface-expressed receptors in α6β2δ-injected oocytes was confirmed on a routinely basis using the δ-GABAAR selective PAM DS2 (1 μM). Furthermore, taking advantage of the differential sensitivity of αβ and αβδ receptors to Zn^2+ as antagonist, 1 μM ZnCl2 was used to verify that a homogenous population of ternary α6β2δ receptor complexes was expressed in these oocytes.
(§3) Two to five minutes of wash time between each application were permitted to overcome receptor desensitization. […] Concentration-response curves for the benzodiazepines were fitted using Equation 1.
To address this aspect, we compared the maximum responses mediated by saturating concentrations (3 μM) of clobazam, N-desmethylclobazam, and clonazepam at the GABAARs with the maximal responses mediated by a saturating concentration of diazepam, a 1,4-benzodiazepine often referred to as a “full benzodiazepine agonist”. […] We also compared the maximum degree of potentiation mediated by clobazam at the α2β2γ2S GABAAR with the maximal responses induced by a saturating concentration of zolpidem. […] In this experiment cRNA for α2β2γ2S was injected in a ratio of 1:1:5 (α2:β2:γ2S) to facilitate the expression of a homogenous population of γ2S-containing complexes.

human α3β2γ2S GABAAR = molecular target: T2, human α3β2γ2S GABAAR (Homo sapiens, UniProt P18507+P34903+P47870); assay: as above; format: cell-based
T2 construct: expressed in transfected cells; host or cells: Xenopus laevis oocytes (cRNA injection, 1:1:1)
Procedure: as §1, §2, §3

human α5β2γ2S GABAAR = molecular target: T3, human α5β2γ2S GABAAR (Homo sapiens, UniProt P18507+P31644+P47870); assay: as above; format: cell-based
T3 construct: expressed in transfected cells; host or cells: Xenopus laevis oocytes (cRNA injection, 1:1:1)
Procedure: as §1, §2, §3

human α6β2δ GABAAR = molecular target: T4, human α6β2δ GABAAR (Homo sapiens, UniProt P47870+Q16445); assay: as above; format: cell-based; details: for EC50: co-applied with GABA EC20, N-desmethylclobazam value estimated, curve not saturated at 1 mM
T4 construct: expressed in transfected cells; host or cells: Xenopus laevis oocytes (cRNA injection, α6:β2:δ 10:1:10)
Procedure: as §1, §2, §3

human α1β2γ2S GABAAR [1] = molecular target: T5, human α1β2γ2S GABAAR (Homo sapiens, UniProt P14867+P18507+P47870)
Procedure: (§4) Electrophysiological recordings were performed using the TEVC technique on Xenopus oocytes expressing various GABAAR combinations using a protocol adapted from previous studies [44, 45]. […] Cells were impaled with agar-plugged 0.5–1 MΩ electrodes containing 3 M KCl and voltage clamped at −70 mV by a Gene Clamp 500B amplifier (Axon Instruments, Union City, CA, USA) and recorded with pClamp 10 (Windows version, Molecular Devices, LLC, Sunnyvale, CA, USA). The oocytes were continuously perfused with Ringer buffer, and the test compounds were applied in the perfusate. Experiments were performed at room temperature and each data point represents the mean ± S.E.M. value of recordings performed on at least two oocytes from at least two different batches of oocytes. The recorded baseline-to-peak current amplitudes were analyzed using Clampfit 10.1 (Axon Instruments, Union City, CA, USA).

rat α3β3γ2L GABAAR = details: patch clamp, cited from earlier work; for Imax: % of the responses evoked by GABA EC10–EC20, HEK-293T cells
human α1β2γ2S GABAAR [2] = molecular target: T5, human α1β2γ2S GABAAR; assay: cell-based
Procedure: as §4

[3] = % of the response evoked by GABA EC20 (EC20 response = 100%)

T2 sequence (P34903 29-492): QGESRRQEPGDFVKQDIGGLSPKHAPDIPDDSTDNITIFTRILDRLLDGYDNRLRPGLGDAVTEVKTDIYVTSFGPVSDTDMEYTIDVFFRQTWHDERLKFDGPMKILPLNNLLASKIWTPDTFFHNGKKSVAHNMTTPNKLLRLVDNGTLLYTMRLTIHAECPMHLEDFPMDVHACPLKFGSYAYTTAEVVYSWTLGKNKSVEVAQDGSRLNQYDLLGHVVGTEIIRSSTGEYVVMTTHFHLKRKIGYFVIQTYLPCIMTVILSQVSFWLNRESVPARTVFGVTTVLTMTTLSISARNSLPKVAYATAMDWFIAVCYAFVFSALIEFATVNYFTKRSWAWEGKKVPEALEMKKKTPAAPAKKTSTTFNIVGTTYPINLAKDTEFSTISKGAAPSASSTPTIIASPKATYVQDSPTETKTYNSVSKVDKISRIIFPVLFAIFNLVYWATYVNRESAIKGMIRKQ
T2 sequence (P47870 26-474 isoform P47870-1 limits assumed): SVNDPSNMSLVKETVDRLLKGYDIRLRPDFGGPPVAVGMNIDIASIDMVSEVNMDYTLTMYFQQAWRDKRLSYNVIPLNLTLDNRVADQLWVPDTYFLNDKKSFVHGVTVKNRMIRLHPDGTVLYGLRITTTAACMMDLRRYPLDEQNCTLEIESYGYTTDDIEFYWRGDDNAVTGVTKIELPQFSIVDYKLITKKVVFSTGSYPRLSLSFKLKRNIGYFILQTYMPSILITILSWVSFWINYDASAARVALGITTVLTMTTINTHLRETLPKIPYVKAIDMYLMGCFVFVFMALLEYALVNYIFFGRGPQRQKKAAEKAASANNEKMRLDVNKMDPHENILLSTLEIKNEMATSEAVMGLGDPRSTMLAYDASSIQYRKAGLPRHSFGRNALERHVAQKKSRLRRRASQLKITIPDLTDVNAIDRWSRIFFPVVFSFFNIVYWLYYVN
T2 sequence (P18507 40-467 isoform P18507-1 limits assumed): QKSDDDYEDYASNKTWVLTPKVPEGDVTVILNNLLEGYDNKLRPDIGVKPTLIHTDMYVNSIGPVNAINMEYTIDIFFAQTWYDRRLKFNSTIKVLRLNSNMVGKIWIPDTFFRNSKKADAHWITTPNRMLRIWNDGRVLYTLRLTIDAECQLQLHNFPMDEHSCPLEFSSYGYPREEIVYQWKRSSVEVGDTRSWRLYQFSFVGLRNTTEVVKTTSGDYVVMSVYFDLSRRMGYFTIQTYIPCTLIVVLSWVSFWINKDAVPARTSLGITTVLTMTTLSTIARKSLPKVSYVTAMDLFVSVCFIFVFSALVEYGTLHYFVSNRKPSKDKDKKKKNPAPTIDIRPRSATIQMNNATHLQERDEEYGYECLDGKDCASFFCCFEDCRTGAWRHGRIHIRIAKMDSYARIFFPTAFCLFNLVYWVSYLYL
T1 sequence (P47869 29-451): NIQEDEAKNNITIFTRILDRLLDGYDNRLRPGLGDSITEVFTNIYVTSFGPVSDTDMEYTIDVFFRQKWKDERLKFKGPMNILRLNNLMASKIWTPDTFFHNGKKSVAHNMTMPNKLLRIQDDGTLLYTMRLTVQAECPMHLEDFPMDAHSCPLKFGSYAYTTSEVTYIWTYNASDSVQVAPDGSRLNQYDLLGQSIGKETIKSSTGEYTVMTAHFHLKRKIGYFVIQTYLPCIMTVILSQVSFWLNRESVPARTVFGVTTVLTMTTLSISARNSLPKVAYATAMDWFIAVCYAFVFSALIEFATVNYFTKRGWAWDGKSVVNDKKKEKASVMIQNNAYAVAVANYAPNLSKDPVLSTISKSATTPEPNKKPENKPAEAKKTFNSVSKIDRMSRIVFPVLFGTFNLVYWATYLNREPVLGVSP
T1 sequence (P47870 26-474 isoform P47870-1 limits assumed): as the sequence (P47870 26-474 isoform P47870-1 limits assumed) above
T1 sequence (P18507 40-467 isoform P18507-1 limits assumed): as the sequence (P18507 40-467 isoform P18507-1 limits assumed) above
T4 sequence (Q16445 20-453): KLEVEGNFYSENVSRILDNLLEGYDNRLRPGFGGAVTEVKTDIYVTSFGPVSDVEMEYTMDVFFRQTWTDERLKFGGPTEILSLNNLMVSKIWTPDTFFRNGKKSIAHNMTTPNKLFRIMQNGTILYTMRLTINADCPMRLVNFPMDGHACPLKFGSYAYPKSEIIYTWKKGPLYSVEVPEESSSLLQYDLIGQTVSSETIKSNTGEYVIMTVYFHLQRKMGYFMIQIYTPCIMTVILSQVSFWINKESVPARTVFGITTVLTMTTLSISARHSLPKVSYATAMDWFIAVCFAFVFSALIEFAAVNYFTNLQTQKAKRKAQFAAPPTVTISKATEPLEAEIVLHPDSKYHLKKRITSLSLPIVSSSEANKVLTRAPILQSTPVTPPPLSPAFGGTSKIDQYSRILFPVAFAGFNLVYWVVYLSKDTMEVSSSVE
T4 sequence (P47870 26-474 isoform P47870-1 limits assumed): as the sequence (P47870 26-474 isoform P47870-1 limits assumed) above
T4 sequence (O14764 25-452 partner): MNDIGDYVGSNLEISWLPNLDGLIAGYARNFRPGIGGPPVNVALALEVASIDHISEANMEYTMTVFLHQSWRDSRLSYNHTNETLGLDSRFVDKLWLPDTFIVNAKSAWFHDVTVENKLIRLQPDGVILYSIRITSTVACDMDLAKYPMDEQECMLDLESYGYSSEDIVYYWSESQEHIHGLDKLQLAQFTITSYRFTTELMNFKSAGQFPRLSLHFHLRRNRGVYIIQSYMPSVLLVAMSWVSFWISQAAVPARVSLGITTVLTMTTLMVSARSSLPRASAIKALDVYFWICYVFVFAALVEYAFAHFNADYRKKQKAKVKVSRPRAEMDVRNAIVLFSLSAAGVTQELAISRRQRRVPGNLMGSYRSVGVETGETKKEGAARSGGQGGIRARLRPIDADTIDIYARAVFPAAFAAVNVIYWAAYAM
T5 sequence (P14867 28-456): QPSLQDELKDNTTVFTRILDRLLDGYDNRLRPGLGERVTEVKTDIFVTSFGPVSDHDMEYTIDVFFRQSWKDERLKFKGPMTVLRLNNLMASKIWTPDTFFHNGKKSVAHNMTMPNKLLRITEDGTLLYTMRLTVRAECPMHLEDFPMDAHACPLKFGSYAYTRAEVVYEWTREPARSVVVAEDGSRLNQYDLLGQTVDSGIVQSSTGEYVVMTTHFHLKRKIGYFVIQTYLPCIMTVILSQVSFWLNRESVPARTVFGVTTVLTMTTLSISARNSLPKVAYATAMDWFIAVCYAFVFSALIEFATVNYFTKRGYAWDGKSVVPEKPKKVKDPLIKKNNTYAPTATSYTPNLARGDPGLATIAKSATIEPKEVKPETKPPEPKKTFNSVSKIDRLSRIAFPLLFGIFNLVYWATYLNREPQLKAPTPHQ
T5 sequence (P47870 26-474 isoform P47870-1 limits assumed): as the sequence (P47870 26-474 isoform P47870-1 limits assumed) above
T5 sequence (P18507 40-467 isoform P18507-1 limits assumed): as the sequence (P18507 40-467 isoform P18507-1 limits assumed) above
T3 sequence (P31644 32-462): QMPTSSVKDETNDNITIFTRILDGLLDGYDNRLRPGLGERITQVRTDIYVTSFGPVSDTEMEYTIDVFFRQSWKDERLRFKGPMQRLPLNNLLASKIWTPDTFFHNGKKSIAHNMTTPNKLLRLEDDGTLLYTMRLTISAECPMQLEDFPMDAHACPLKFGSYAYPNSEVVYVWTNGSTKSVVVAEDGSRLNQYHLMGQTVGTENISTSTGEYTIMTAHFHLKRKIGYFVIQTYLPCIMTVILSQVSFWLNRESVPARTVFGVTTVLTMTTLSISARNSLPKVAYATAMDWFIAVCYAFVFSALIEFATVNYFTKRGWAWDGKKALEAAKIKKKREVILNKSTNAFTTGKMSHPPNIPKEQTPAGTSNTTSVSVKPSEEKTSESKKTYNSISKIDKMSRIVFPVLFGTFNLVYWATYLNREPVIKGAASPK
T3 sequence (P47870 26-474 isoform P47870-1 limits assumed): as the sequence (P47870 26-474 isoform P47870-1 limits assumed) above
T3 sequence (P18507 40-467 isoform P18507-1 limits assumed): as the sequence (P18507 40-467 isoform P18507-1 limits assumed) above

In the case of O=C1CN=C(c2ccccc2Cl)c2cc([N+](=O)[O-])ccc2N1 [clonazepam], the EC50 (human α2β2γ2S GABAAR) is reported as 7.4 nM, the “Imax ± S.E.M.” value (human α2β2γ2S GABAAR; [3]) is reported as 253 ± 17% and the “fold more potent than N-desmethylclobazam as a PAM” value (human α2β2γ2S GABAAR; EC50 ratio) is reported as 19 fold. The “fold more potent than clobazam as a PAM” value (human α2β2γ2S GABAAR; EC50 ratio) was 19 fold, the EC50 (human α3β2γ2S GABAAR) was 16 nM and the “Imax ± S.E.M.” value (human α3β2γ2S GABAAR; [3]) was 316 (334 and 297) ^b %. For the same compound, the “fold more potent than N-desmethylclobazam as a PAM” value (human α3β2γ2S GABAAR; EC50 ratio) was 18 fold, the “fold more potent than clobazam as a PAM” value (human α3β2γ2S GABAAR; EC50 ratio) was 15 fold and the EC50 (human α5β2γ2S GABAAR) was 20.9 nM. The “Imax ± S.E.M.” value (human α5β2γ2S GABAAR; [3]) was 255 ± 25%, the “fold more potent than N-desmethylclobazam as a PAM” value (human α5β2γ2S GABAAR; EC50 ratio) was 5 fold and the “fold more potent than clobazam as a PAM” value (human α5β2γ2S GABAAR; EC50 ratio) was 8 fold. The “Imax ± S.E.M.” value (human α6β2δ GABAAR; [3]) was 283 ± 38%, the EC50 (human α6β2δ GABAAR; EC50, PAM) was 29000 nM and the EC50 (human α6β2δ GABAAR; pEC50 ± S.E.M., PAM) was 29500 nM. The “Imax ± S.E.M.” value (human α1β2γ2S GABAAR [1]; [3]) was 209 ± 14%, the “fold more potent than N-desmethylclobazam as a PAM” value (human α1β2γ2S GABAAR [1]; EC50 ratio) was 10 fold and the “fold more potent than clobazam as a PAM” value (human α1β2γ2S GABAAR [1]; EC50 ratio) was 9 fold. The EC50 (rat α3β3γ2L GABAAR; 3 μM GABA (EC10–EC20), HEK-293T cells) was 90 nM, the Imax (rat α3β3γ2L GABAAR) was 263% and the EC50 (human α1β2γ2S GABAAR [2]) was 15.5 nM.
In the case of CN1C(=O)CN=C(c2ccccc2)c2cc(Cl)ccc21 [diazepam], the Imax (rat α3β3γ2L GABAAR) is listed as 508%.
For Cc1ccc(-c2nc3ccc(C)cn3c2CC(=O)N(C)C)cc1 [zolpidem], the “fold potentiation of GABA EC20-evoked currents” value (human α2β2γ2S GABAAR; saturating concentration (3 μM)) was 2.7 fold.
